Patent US5292729A, “II-bond aromatic vitamin chelates” (Albion International, Inc., priority 1992, dated 1994)

Columns and labels:
[1] = 65Zn level in blood of rats after oral gavage, scintillation count; settings: oral 0.03 mg Zn, 15 μcuries 65Zn, mean ± standard deviation
Protocol: (§1) The chelate thus prepared was diluted such that a 5 μl dose contained about 0.03 mg Zn and 15 μcuries of ^65 Zn activity. This dose, when administered to a standard laboratory rat weighing 150±25 gms, closely approximates the RDA of 15 mg Zn for a human being weighing about 70 kg.
(§2) Ten Sprague Dawley rats, weighing 190±10 grams each were divided into two groups of five rats. Five rats were designated the test group and the other five rats the control group.
(§3) No surgery was performed as all animals were given light doses of nembutal (40 mg/kg) to improve ease of handling and minimize injury during lavage and bloodletting.
Beginning 30 minutes after dosing and continuing at 30 minute intervals up to a period of 3 hours following dosing, 0.1 ml of blood was withdrawn from rats in both the test and control groups. The blood was then analyzed for ^65 Zn by scintillation count.

[2] = 65Zn isotope levels in urine and tissues of sacrificed rats
Protocol: as §1, §2, §3
The rats used in Example 22 were sacrificed after completion of the testing and the urine, liver, muscle, kidney, brain and spleens from the animals in each grouping were collected for comparative ^65 zinc isotope levels.

**Q.** With `[Cl-].[Cl-].[Zn+2]` [ZnCl2] as the molecule, how does the 65Zn in blood ([1]; 0.5 hrs after dosing) read?
**A.** 210 ± 11 CCPM

**Q.** And the 65Zn in blood ([1]; 1.0 hrs after dosing)?
**A.** 226 ± 14 CCPM

**Q.** What about the 65Zn in blood ([1]; 1.5 hrs after dosing) of the same molecule?
**A.** 212 ± 26 CCPM

**Q.** What about the 65Zn in blood ([1]; 2.5 hrs after dosing) of the same molecule?
**A.** 206 ± 8 CCPM

**Q.** What about the 65Zn in blood ([1]; 3.0 hrs after dosing) of the same molecule?
**A.** 207 ± 8 CCPM

**Q.** And the 65Zn in brain ([2]; brain, after 3 hour test)?
**A.** 0 CCPM

**Q.** What about the 65Zn in kidney ([2]; kidney, after 3 hour test) of the same molecule?
**A.** 24 CCPM

**Q.** And the 65Zn in liver ([2]; liver, after 3 hour test)?
**A.** 50 CCPM

**Q.** What about the 65Zn in muscle ([2]; muscle, after 3 hour test) of the same molecule?
**A.** 0 CCPM

**Q.** What about the 65Zn in spleen ([2]; spleen, after 3 hour test) of the same molecule?
**A.** 16 CCPM

**Q.** And the “excretion of zinc compared with the chelated form” value ([2]; urine)?
**A.** excreted more readily

**Q.** And the 65Zn in urine ([2]; urine, after 3 hour test)?
**A.** 38 CCPM
